Test results reported in patent US8182983B2, “Method for determining immune system affecting compounds” (Canimguide Therapeutics AB, priority 2002, dated 2012).

B1: MMP-2: matrix metalloproteinase (R&D Systems), activated (protein, UniProt P08253 110-660, looked up)
72 kDa type IV collagenase: YNFFPRKPKWDKNQITYRIIGYTPDLDPETVDDAFARAFQVWSDVTPLRFSRIHDGEADIMINFGRWEHGDGYPFDGKDGLLAHAFAPGTGVGGDSHFDDDELWTLGEGQVVRVKYGNADGEYCKFPFLFNGKEYNSCTDTGRSDGFLWCSTTYNFEKDGKYGFCPHEALFTMGGNAEGQPCKFPFRFQGTSYDSCTTEGRTDGYRWCGTTEDYDRDKKYGFCPETAMSTVGGNSEGAPCVFPFTFLGNKYESCTSAGRSDGKMWCATTANYDDDRKWGFCPDQGYSLFLVAAHEFGHAMGLEHSQDPGALMAPIYTYTKNFRLSQDDIKGIQELYGASPDIDLGTGPTPTLGPVTPEICKQDIVFDGIAQIRGEIFFFKDRFIWRTVTPRDKPMGPLLVATFWPELPEKIDAVYEAPQEEKAVFFAGNEYWIYSASTLERGYPKPLTSLGLPPDVQRVDAAFNWSKNKKTYIFAGDKFWRYNEVKKKMDPGFPKLIADAWNAIPDNLDAVVDLQGGGHSYFFKGAYYLKLENQSLKSVKFGSIKSDWLGC
modifications: activated

Tests used:
Format in all cases: cell-based, human
[1] = test system: PBMC from healthy volunteers; assay: Inhibition of IL-1Ra production by PBMC with Tosyl
Protocol: Monokines were assessed by ELISA using the DuoSet ELISA development system for human IL-6, TNF-α or IL-1β (R&D Systems Europe, Ltd. UK) following the manufacturer's recommended procedures. Lower limit of detection was […] for IL-6, […] for TNF-α and […] for IL-1β. IL-10 was detected with a kit from Diaclone Research, FR. The lower limit of detection was […]. Human IL-1Ra was detected with a quantitative sandwich ELISA using a monoclonal mouse anti-human IL-1Ra as capture antibody and a biotinylated goat anti-human IL-1Ra as developing antibody (both from R&D Systems). […] Following incubation for 1 hr at room temperature, plates were washed and the amount of bound IL-1Ra was measured by hydrolysis of paranitrophenyl phosphate (Sigma). Optical density was read at dual wavelengths, 405 nm and 570 nm, respectively, in a Multiscan EX microplate reader (Labsystems). […]
Inhibition of IL-1Ra production by PBMC with Tosyl PBMC (2×10^6/ml) from healthy volunteers were pre-incubated with various concentrations of Na-p-Tosyl-L-lysine chloromethyl ketone (Tosyl, Sigma) diluted in RPMI1640/2% HSA for 30 minutes at 37° C. after which the cell suspensions were washed three times in RPMI/2% HSA. […] Viability of cultured PBMCs were also assessed after 24 hrs by Trypan blue exclusion and found to be 100%. […]

[2] = test system: PBMC from RCC patients; assay: TNF-α in PHA stimulated PBMC cultures with chlorambucil; conditions: chlorambucil 1 μg/ml, 72 hours, responders vs non-responders to interleukin-2
Protocol: PHA stimulated proliferation of PBMC with and without chlorambucil Venous blood was drawn at the indicated time points from RCC patients undergoing IL-2 (Proleukin, Chiron, NL) therapy. Mononuclear cells were isolated by Ficoll-Isopaque (Pharmacia, SE) density gradient centrifugation. 5×10^4 PBMC in a final volume of 200 μl were seeded into round-bottomed microtiter plates (Corning Inc. NY, US) in culture medium consisting of RPMI 1640 supplemented with 100 IU/ml Penicillin, 100 μg/ml Streptomycin (Flow laboratories) and 10% heat-inactivated, autologous fresh serum. […]
PHA-stimulated cultures with or without chlorambucil (1 µg/ml) were set up in parallel as described above for mitogen-stimulated cultures. […] The amount of TNF-α in the SNs was evaluated with an ELISA kit from Immunotech S.A., FR, according to the manufacturer's instructions. […]
Comparisons between the proliferative response to PHA in different groups or at different test occasions were done on logarithmated mean values of dpm of triplicates using unpaired t-test. For the determination of the effect of addition of CHL on the proliferative response of PHA-stimulated PBMCs, a modulation index (MI) was calculated according to the following formula: MI=log(dpm PHA+drug/dpm PHA).

[3] = test system: normal PBMCs; assay: Fragmentation of IgG and serum albumin using MMPs, IL-6 inducing activity of supernatants; conditions: supernatants tested on normal PBMCs; for release of fragments inducing or modulating IL-6 production from albumin: serum albumin incubated with MMP; for release of fragments inducing or modulating IL-6 production from IgG: IgG incubated with MMP
Protocol: MMP-1, -2, -13 (R&D Systems) and MMP-3 and -7 (Chemicon, UK) were activated according to instructions of the manufacturer. […] The mixtures were incubated for 5-20 hours at 37° C. Parallel incubations of MMP or the substrates alone, in respective buffer, were set up as controls. The mixtures were buffer exchanged to RPMI as described previously and filtered through a 0.45 μm Millex-HV syringe filter (Millipore, MA, US). Storing of mixtures, when needed, was performed at −70° C. until analysing by gel-electrophoresis and testing for monokine inducing activity in fresh, normal PBMC as described above.

[4] = test system: PBMC from healthy donors; assay: IL-2 induced proliferation of PBMC in the presence of collagen/collagen fragments; conditions: collagen 26 ug/ml, PBMCs from healthy donors, autologous serum
Protocol: 100 μl of RPMI1640 supplemented with 200 IU/ml penicillin, […] streptomycin, 4 mM L-glutamine (all from Sigma Chemical Co. MO, US) and 20% heat-inactivated human serum (autologous or from cancer patients) were added to uncoated, HSA or HSA/IgG coated tissue culture microtiter plates. PBMC, isolated from healthy individuals or patients with metastatic renal cell carcinoma, were diluted in RPMI/2%1-ISA at a concentration of 5×10^5/ml and 100 μl were added to the microtiter wells. Interleukin-2 (IL-2, Proleukin, Chiron, NL), at a final concentration of 120 IU/well, was added to some wells. Cells were cultured for 7 days in a humidified, 5% CO2-atmosphere at 37° C.
Proliferation was assayed by incorporation of 1.6 μCi/well of [3H]-thymidine (Amersham Int., UK) during the last 18 hrs. Mean values of dpm (disintegrations per minute) of triplicates were used for the calculations.
Purified collagen from human skin (Sigma) at a concentration of 100 µg/ml was incubated in 100 mM Tris-HCl, pH 7.6, containing 0.15 M NaCl, 10 mM CaCl2 and 0.05% Brij35 over night at 37° C. The buffer was then exchanged to RPMI1640 by gel filtration through a Sephadex-G25 (PD-10) column (Amersham Biosciences) and filtered through a 0.45 μm Millex-HV syringe filter (Millipore) and frozen at −70° C. until use. […]

[5] = test system: normal PBMCs; assay: Homogenised, washed tumour tissue incubated with MMP-2, IL-6 inducing activity; conditions: MMP-2 5 ng/ml; 20 hours at 37° C.
Protocol: The collection, washing and homogenisation of tumour cryo sections (3×300 μm) were carried out as described above. The pelleted tumour tissue was suspended in 0.5 ml cold RPMI/PEST. MMP-2 (R&D Systems, UK), activated according to instructions from the manufacturer, was added at a final concentration of 5 ng/ml. The tumour tissue suspension was incubated with MMP-2 for 20 h at 37° C. and the supernatant collected after centrifugation. Parallel incubation of tumour tissue with no addition of MMP-2 was set up as a control. The mixtures were buffer exchanged to RPMI by gel filtration through a Sephadex-G25 (PD-10) column (Amersham Biosciences, SE) and filtered through a 0.45 μm Millex-HV syringe filter (Millipore, MA, US). Finally, the mixtures were analysed by gel-electrophoresis and tested for monokine inducing activity in fresh normal PBMC as described above.

| Molecule | release of fragments inducing or modulating IL-6 production from albumin [3] | release of fragments inducing or modulating IL-6 production from IgG [3] | also measured |
| --- | --- | --- | --- |
| Cc1ccc(S(=O)(=O)NC(CCCCN)C(=O)CCl)cc1 [Tosyl, Na-p-Tosyl-L-lysine chloromethyl ketone] |  |  | Viability of cultured PBMCs by Trypan blue exclusion ([1]; after 24 hrs, PBMC pre-incubated with Tosyl): 100%; effect on production of IL1Ra ([1]; non-toxic concentrations, PBMC from healthy individuals (n=9), plates pre-coated with HSA or HSA/IgG): significantly reduced production |
| O=C(O)CCCc1ccc(N(CCCl)CCCl)cc1 [chlorambucil, Chlorambucil] |  |  | TNF-α production in PHA stimulated cultures with chlorambucil [2]: in non-responders TNF-α production is more stimulated than in responders |
| MMP-1: matrix metalloproteinase (R&D Systems), activated | released active fragments |  |  |
| MMP-3: matrix metalloproteinase (Chemicon), activated | released active fragments | released active fragments |  |
| MMP-7: matrix metalloproteinase (Chemicon), activated |  | released active fragments |  |
| collagen |  |  | effect on IL-2 induced proliferation [4]: strongly inhibitory effect; effect on IL-2 induced proliferation ([4]; listed as collagen/collagen fragments): strong inhibitory effect was demonstrated in two out of three experiments |
| B1 | released active fragments | released active fragments | release of IL-6 inducing activity from washed tumour tissue [5]: modulated the release of IL-6 inducing activity |
